Data: US20230087950A1, “METHOD FOR SYNTHESIZING DOPA OLIGOPEPTIDE INTERMEDIATE AND USE, COMPOSITION AND PREPARATION THEREOF” (HAINAN UNIVERSITY, priority 2019, published 2023)
Entries after “also recorded” stand apart in the source; their conditions may differ. Where a SMILES comes first, the peptide text is derived from it. [ ]: non-standard residue; d: D form. The star is where a group is joined. Dopa = N[C@@H](Cc1ccc(O)c(O)c1)C(=O)O; Stearoyl = CCCCCCCCCCCCCCCCCC(=O)*; Palmitoyl = CCCCCCCCCCCCCCCC(=O)*; Myristoyl = CCCCCCCCCCCCCC(=O)*

Assays:
[1] = Gelation tests of conjugates of fatty acid and L-DOPA in organic solvent/water; format: physicochemical; conditions: Table 3
Method: (§1) 1) Six samples of 40 mg FDD-16 was added into six 2 ml centrifuge tubes, followed by addition of 1 ml of respective organic solvents. Mother solutions were prepared using MeOH, ethanol, toluene, THF, DMSO, and DMF, respectively.
(§2) 2) Aliquots of 50 μl of the above mother solutions were added, respectively, to nine 2 ml centrifuge tubes, followed by addition of organic solvents (MeOH, ethanol, toluene, THF, DMSO, DMF, respectively). The volume ratios of the organic solvent to distilled water were 1:9, 2:8, 3:7, 4:6, 5:5, 6:4, 7:3, 8:2 and 9:1, respectively. Tests of each solvent ratio were repeated 3 times. Gel formation rates and the corresponding sample concentrations were marked down.
Tests were performed according to the tests done for FDD-16.

[2] = Gelation tests of L-DOPA-containing lipodipeptides in organic solvent/water; format: physicochemical; conditions: for Gel formation: organic solvents (MeOH, ethanol, toluene, THF, DMSO, DMF) with water; for Gel formation / Range of gelation concentrations: result in words
Method: as §1, §2
The experiments were performed like those of FDD-16.

[3] = Appearance and stability of gels by turning the tubes upside down; format: physicochemical; conditions: tubes turned upside down, standing for long time
Source text: The appearance and stability of gels formed from FDD-16 was studied by turning the tubes upside down and. […] This shed lights on future druggability study of FDD-16 using MeOH, ethanol, THF, DMSO and DMF as solvents. See FIG. 1 for gel formation experiments.

[4] = rat liver homogenate; cited from earlier work
[5] = in vivo; cited from earlier work

SMILES	Gelation concentration ([2]; DMF/water, Table 2)	Gelation concentration ([2]; DMSO/water, Table 2)	Gelation concentration ([2]; Ethanol/water, Table 1)	Gelation concentration ([2]; MeOH/water, Table 1)	Gel formation [2]	Range of gelation concentrations [2]	other results
CCCCCCCCCCCCCCCCCC(=O)N[C@@H](Cc1ccc(O)c(O)c1)C(=O)O [FD-18]							Gelation concentration ([1]; Ethanol/water): 10~14 g/mL; Gelation concentration ([1]; MeOH/water): 10~15 g/mL
CCCCCCCCCCCCCC(=O)N[C@@H](Cc1ccc(O)c(O)c1)C(=O)N[C@@H](CC(=O)O)C(=O)O [FDD-14] (Myristoyl-[Dopa]-Asp-OH)	6~20 g/mL	8~22 g/mL	8~20 g/mL	8~22 g/mL	could form stable gels; also recorded: formed gels in MeOH, ethanol, THF, DMSO and DMF; also recorded: higher possibilities to form gels; also recorded: can form stable gels	wide range of gelation concentrations	Gelation concentration ([2]; THF/water, Table 2): 6~8 g/mL
CCCCCCCCCCCCCCCC(=O)N[C@@H](Cc1ccc(O)c(O)c1)C(=O)N[C@@H](CC(=O)O)C(=O)O [FDD-16] (Palmitoyl-[Dopa]-Asp-OH)	6~22 g/mL	6~28 g/mL	6~24 g/mL	6~26 g/mL	could form stable gels; also recorded: formed gels in MeOH, ethanol, THF, DMSO and DMF; also recorded: can form stable gels	wide range of gelation concentrations	Gelation concentration ([2]; THF/water, Table 2): 8~12 g/mL; Appearance and stability of gel [3]: in good condition and remained at the bottom while standing for long time
CCCCCCCCCCCCCCCCCC(=O)N[C@@H](Cc1ccc(O)c(O)c1)C(=O)N[C@@H](CC(=O)O)C(=O)O [FDD-18] (Stearoyl-[Dopa]-Asp-OH)	14~26 g/mL	16~30 g/mL	12~26 g/mL	10~16 g/mL	could form stable gels; also recorded: formed gels in MeOH, ethanol, DMSO and DMF; also recorded: higher possibilities to form gels; also recorded: can form stable gels	narrower than those of FDD-16 and FDD-14	
N[C@@H](Cc1ccc(O)c(O)c1)C(=O)N[C@@H](CC(=O)O)C(=O)O [H-DOPA-Asp-OH] (H-[Dopa]-Asp-OH)							half-life [4]: about 174 min
CSCC[C@H](NC(=O)[C@@H](N)Cc1ccc(O)c(O)c1)C(=O)O [H-DOPA-Met-OH] (H-[Dopa]-Met-OH)							half-life [4]: 16 min
N[C@@H](Cc1ccc(O)c(O)c1)C(=O)O [L-DOPA]							bioavailability [5]: 1-3%; time of effective blood drug concentration [5]: 50 min
